Literature values in paper PMC3325405 (Amino Acids, 2011).

Molecular target: Klebsiella aerogenes enzyme (urease)
Conditions: read-out: K i, Klebsiella aerogenes urease; ref Todd 1989

For `CC(=O)NO` [AHA, acetohydroxamic acid], which Ki is on record?
The Ki was 2600 nM.
